# Experimental data: US6465442B2, “Topical application of muscarinic and opioid agents for treatment of tinnitus” (priority 1999, dated 2002)
# Several values for one entry are separate records, joined by “and”; a condition that tells them apart may be missing. Identical values can stand only once.
# Key:
# [1] = Otic solution administered by drops to the affected ear of patients complaining of tinnitus; format: in vivo, human; conditions: every 4-6 hrs.
# [2] = as above; format: in vivo, human
# Protocol: A group of ten patients complaining of tinnitus were treated with an otic solution comprising about 500 μg/30 ml of neostigmine. One to two drops of the solution was administered to the affected ear about once every 4-6 hours. The patients reported relief within about 20 minutes after initial administration of the otic composition.
# [3] = individual tinnitus patient, morphine 2 mg/30 cc otic solution
# [4] = individual tinnitus patients, neostigmine 500 μg/30 cc otic solution, every 4-6 hrs.
# [5] = individual tinnitus patients, stadol 1 mg/30 cc otic solution
compound,measurement,setting,value
CN1CC[C@]23c4c5ccc(O)c4O[C@H]2[C@@H](O)C=C[C@H]3[C@H]1C5 [morphine],Results (improvement),[1]; [3],60%
same,Side Effects,[1]; [3],None
CN(C)C(=O)Oc1cccc([N+](C)(C)C)c1 [neostigmine],relief of the tinnitus symptoms reported by patients,"[2]; group of ten patients, about 500 μg/30 ml otic solution, one to two drops about once every 4-6 hours",significant relief
same,time to relief after initial administration of the otic composition,"[2]; group of ten patients, about 500 μg/30 ml otic solution, one to two drops to affected ear",≤ 20 min
same,Results (improvement),[2]; [4],90% and 80% (4×) and 70%
same,Side Effects,[2]; [4],None
"Oc1ccc2c(c1)[C@@]13CCCC[C@@]1(O)[C@@H](C2)N(CC1CCC1)CC3 [stadol, butorphanol]",Results (improvement),[1]; [5],60% and 80% (2×)
same,Side Effects,[1]; [5],None
